Experimental data: US20200247849A1, “PEPTIDE AGONISTS AND ANTAGONISTS OF TLR4 ACTIVATION” (PEPTICOM LTD, priority 2016, published 2020)
Non-standard residues stand in square brackets, D forms with d. No end group written: not given here. Chg = N[C@H](C(=O)O)C1CCCCC1; Nphe = O=C(O)CNCc1ccccc1; Ava = NCCCCC(=O)O

Experiments:
[1] = tested on: TLR4 with MD2 or CD14 co-receptor; assay: Reporter gene (SEAP) PAMP assay in NIH3T3 cells expressing TLR4 with MD2 or CD14 co-receptor; format: cell-based; parameters: key to PAMP assay (NIH3T3 cells) Induction with compound alone / PAMP assay (NIH3T3 cells) Induction with compound + LPS: 0: no effect of the compound alone/no effect of the compound in addition to LPS alone; +: small effect of the compound alone/small effect of the compound in addition to LPS alone; ++: intermediate effect of the comp. alone/intermediate effect of the comp. in add. to LPS alone; +++: strong effect of the compound alone/strong effect of the compound in addition to LPS alone; conditions: for Co-Receptor/s: co-receptor (MD2/CD14) via which the effect occurs; for Co-Receptor/s / Activity: summary of FIGS. 6A-6V; for Activity: type of effect (activation/inhibition) on TLR4
Excerpt: FIGS. 6A-6V show the dose response inhibitor/activator effects of the designed peptides using a reporter gene assay. The reporter gene assay is composed of NIH3T3 cells transfected with either MD2 or CD14 along with TLR4 and the NF-κB-inducible reporter gene Secreted Alkaline Phosphatase (SEAP) to monitor TLR4 activation (Burger-[…] al. 2010, A new cell-based innate immune receptor assay for the examination of receptor activity, ligand specificity, signaling pathways and the detection of pyrogens. […] The receptors are coupled to for the detection of inhibitory activity, cells were treated with the peptide prior to exposure to LPS and the response to LPS is measured at variable peptide doses (as labeled). The detection of cell activation was performed using the peptide alone, at variable doses, as indicated in the respective graphs. The following presents in more details the experimental procedures. Experimental setup: The cell-based Assay is performed with different NIH3T3 reporter cell lines (NIH 3T3 PRR SEAP-TLR4/CD14 or -TLR4/MD2) and the control cell line NIH 3T3 SEAP. The NIH3T3 SEAP cell line is used in order to determine the background of the alkaline phosphatase expression. It is a cell line stably transfected with only the reporter gene plasmid. For each assay a vial of the master cell bank is revitalized and seeded in a standard cell culture flask (75 cm^2 T-Flask) at day one. Cells are cultured in 20 ml culture media (DMEM supplemented with 10% FCS (heat inactivated), 50 units/ ml penicillin, 0.05 mg/ ml streptomycin and 2 mmol/ L L-glutamine). The cells are cultured at 37° C. in a 5% CO2 humidified atmosphere. At Day 1: For the PAMP Assay cells are seeded in a 96-well plate at a density of 0.3.10^5 cells/well in a final volume of 100 μl culture media (DMEM, 10% FCS (heat inactivated)). To ensure equal culture conditions the 96-well cell culture plates are placed side by side and cultivated in a humidified CO2 incubator (37° C. and 5% CO2). […] After a cultivation period of 24 h the media is removed and replaced with the respective volume of fresh media (DMEM, 0.5% FCS (heat inactivated)).The lyophilized peptides are stored in a freezer at -20° C. upon arrival. For the experiments they are dissolved in DMSO (to the highest possible concentration). Before opening the peptides are allowed to equilibrate to room temperature (in order to reduce the uptake of moisture). For each experiment the stock solution is diluted in DMEM to the appropriate working concentration. […] Sonication was also used to help dissolve the peptides. Immediately after replacing the media, the diluted peptides are applied in a serial dilution to the cells and directly after that the agonist is added to the cells. After adding peptide and […] the final volume in each well of a 96 well plate amounts 100 μl/well. The culture medium containing 0.5% FCS is used as a negative reference item. The induction is performed for 18 h at 37° C. and 5% CO2. At Day 3: To determine the final SEAP value, 50 μl of the supernatant is carefully transferred in a new 96-well plate (Greiner-F-plate) and 50 μl of the substrate (pNPP; p-nitrophenyl phosphate) is added. SEAP catalyzes the hydrolysis of pNPP to the final product para-nitrophenol (yellow) which can be detected by a photometric analysis using an UV-VIS reader at 405 nm. […] The results of FIGS. 6A-6V with respect to peptide activity are summarized in Table 1 above with respect to the type of effect of the respective peptide (activation/inhibition) and with respect to the corresponding co-receptor (MD2/CD14). Data concerning SEQ ID No. 22 with respect to co-receptor CD14 is in preparation.

whole human blood = assay: IL-1β ELISA after 24-hour incubation with whole human blood; format: cell-based; parameters: key: 0: no effect of the compound alone/no effect of the compound in addition to LPS alone; +: small effect of the compound alone/small effect of the compound in addition to LPS alone; ++: intermediate effect of the comp. alone/intermediate effect of the comp. in add. to LPS alone; +++: strong effect of the compound alone/strong effect of the compound in addition to LPS alone; conditions: for IL-1β ELISA after blood activation Induction with compound + LPS: LPS 100 pg/ml
Procedure: One attribute of TLR-4 activation is the release of the pro-inflammatory cytokine Interleukin-1β (IL1β). Several of our discovered peptides were tested for IL1β induction by ELISA following a 24-hour incubation with whole human blood. IL1β induction was measured with increasing dosage of the peptides alone, or with a fixed dosage of LPS (100 pg/ml).

Substance | Co-Receptor/s [1] | PAMP assay (NIH3T3 cells) Induction with compound + LPS [1] | PAMP assay (NIH3T3 cells) Induction with compound alone [1] | Activity [1] | IL-1β ELISA after blood activation Induction with compound + LPS (whole human blood) | IL-1β ELISA after blood activation Induction with compound alone (whole human blood)
1(N′) Ava-OH-2Leu-3Tyr-4Met-5Ser-6Leu-7Lys-8Trp-9Met (C′) ([Ava]LYMSLKWM; also: Ava-OH) [SEQ ID No. 4 (M1)] | MD2/CD14 | ++ | ++ | Activator | +++ | +
(N′) 1(S)Glu-2(S)Trp-3Gly-4(S)Trp-5(S)Arg-6(S)Met-7(R,S)Ile-8Bzl(Gly) (C′) (EWGWRMI[Nphe]; also: Ile7 (R,S)) [SEQ ID No. 2 (M1)] | MD2/CD14 | – | – | Activator | – | –
(N′) Chg-2Leu-3Tyr-4Met-5Ser-6Leu-7Lys-8Trp-9Met (C′) ([Chg]LYMSLKWM) [SEQ ID No. 4 (M2)] | MD2/CD14 | ++ | ++ | Activator | +++ | +
EWGWRMII (Activator) [SEQ ID No. 2] | MD2/CD14 | – | – | Activator | – | –
ILYKSLKWM (Activator) [SEQ ID No. 5] | MD2/CD14 | – | – | Activator | – | –
ILYMSLKWM (Activator) [SEQ ID No. 4] | MD2/CD14 | +++ | + | Activator | +++ | 0
KKLMLII (at the C-terminus CH3 replace COOH) (KKLMLII-CH3) [SEQ ID No. 12] | MD2/CD14 | – | – | Inhibitor | – | –
MIPYGMRMM (Inhibitor) [SEQ ID No. 10] | MD2 | – | – | Inhibitor | – | –
PLWMMIKSMGSMMEMKK (Activator) [SEQ ID No. 3] | MD2 | – | – | Activator | – | –
RYETMSIMIKSGGKG (RYETMSIMIKSGGKY; Activator) [SEQ ID No. 1] | MD2/CD14 | – | – | Activator | – | –
RYETMSIMIKSGGKG-(methyl group replacing C-terminus) [SEQ ID No. 1 (M3)] | MD2/CD14 | + | + | Activator | 0 | 0
RYETMSIMIKSGGKY (not fully specified) [SEQ ID No. 1 (M1)] | MD2/CD14 | + | + | Activator | +++ | ++
RYETMSIMIKSGGKY-(methyl group replacing C-terminus) (RYETMSIMIKSGGKY-CH3) [SEQ ID No. 1 (M2)] | MD2/CD14 | + | + | Activator | 0 | 0
c[IGFMMMKKEF] (cyclic; Activator, cyclic) [SEQ ID No. 8] | MD2/CD14 | – | – | Activator | – | –
c[IWSRSW] (cyclic; Inhibitor, cyclic) [SEQ ID No. 15] | MD2 | – | – | Inhibitor | – | –
c[MLSFRM] (cyclic; Activator, cyclic) [SEQ ID No. 6] | MD2/CD14 | ++ | ++ | Activator | +++ | +
c[SIWDTMW] (cyclic; Inhibitor, cyclic) [SEQ ID No. 14] | MD2 | – | – | Inhibitor | – | –
c[SWEFLW] (cyclic; Inhibitor, cyclic) [SEQ ID No. 13] | MD2/CD14 | – | – | Inhibitor | – | –
c[geldkftm] (all D-amino acids) (cyclo(G[dE][dL][dD][dK][dF][dT][dM]); SMILES CSCC[C@H]1NC(=O)[C@@H]([C@H](C)O)NC(=O)[C@@H](Cc2ccccc2)NC(=O)[C@@H](CCCCN)NC(=O)[C@@H](CC(=O)O)NC(=O)[C@@H](CC(C)C)NC(=O)[C@@H](CCC(=O)O)NC(=O)CNC1=O) [SEQ ID No. 21] | MD2/CD14 | – | – | Activator | – | –
c[gfwseeeksl] (all D-amino acids) (cyclo(G[dF][dW][dS][dE][dE][dE][dK][dS][dL]); SMILES CC(C)C[C@H]1NC(=O)[C@@H](CO)NC(=O)[C@@H](CCCCN)NC(=O)[C@@H](CCC(=O)O)NC(=O)[C@@H](CCC(=O)O)NC(=O)[C@@H](CCC(=O)O)NC(=O)[C@@H](CO)NC(=O)[C@@H](Cc2c[nH]c3ccccc23)NC(=O)[C@@H](Cc2ccccc2)NC(=O)CNC1=O) [SEQ ID No. 22] | MD2/CD14 | – | – | Activator | – | –
c[gwlwrsl] (all D-amino acids) (cyclo(G[dW][dL][dW][dR][dS][dL]); SMILES CC(C)C[C@H]1NC(=O)[C@@H](CO)NC(=O)[C@@H](CCCNC(=N)N)NC(=O)[C@@H](Cc2c[nH]c3ccccc23)NC(=O)[C@@H](CC(C)C)NC(=O)[C@@H](Cc2c[nH]c3ccccc23)NC(=O)CNC1=O) [SEQ ID No. 19] | MD2/CD14 | – | – | Activator | – | –
c[gwwwral] (all D-amino acids) (cyclo(G[dW][dW][dW][dR][dA][dL]); SMILES CC(C)C[C@H]1NC(=O)[C@@H](C)NC(=O)[C@@H](CCCNC(=N)N)NC(=O)[C@@H](Cc2c[nH]c3ccccc23)NC(=O)[C@@H](Cc2c[nH]c3ccccc23)NC(=O)[C@@H](Cc2c[nH]c3ccccc23)NC(=O)CNC1=O) [SEQ ID No. 20] | MD2/CD14 | – | – | Inhibitor | – | –
rmmmw (all D-amino acids, CH3 group replaces C-term) ([dR][dM][dM][dM][dW]-CH3) [SEQ ID No. 16] | MD2/CD14 | – | – | Activator | – | –
tiymmmtmkg (all D-amino acids, both isoleucine chiral centers in D-enantiomer) [SEQ ID No. 18] | CD14 | – | – | Activator | – | –
wwikd (all D-amino acids, both isoleucine chiral centers in D-enantiomer) [SEQ ID No. 17] | MD2/CD14 | – | – | Activator | – | –
